These results are taken from publication PMC9138151, “Bioactive Phytochemicals of Citrus reticulata Seeds—An Example of Waste Product Rich in Healthy Skin Promoting Agents” (Antioxidants, 2022).

As a reminder, the IC50 is the concentration at which inhibition is half-maximal. A low value points to greater potency.

One assay deals with injured skin. The note with it: cited from earlier work.
Another assay has as its system wound healing. Details: method as in PMID 28989011. The note with it: cited from earlier work.
The next assay addresses Xanthine oxidase (Homo sapiens, UniProt P47989). As to the kind of experiment: In vitro assay of xanthine oxidase activity. It is filed as biochemical. The settings on record: for IC50: ± SD, triplicate. How it is done: Xanthine oxidase (XO) inhibitory potential was carried out according to the previously described method. The color produced because of hydrogen peroxide release during the process of oxidation of XO was measured at 570 nm using the plate reader EPOCH™ “MICROPLATE READER (BIOTEK)”. Forty-four microliters of xanthine oxidase buffer were mixed with 2 µL of xanthine substrate solution and 2 µL of XO. […] was applied as a positive control. This experiment was performed in triplicate.

The subject of another assay is cutaneous wound healing. Details: method as in PMID 20193736. The note with it: cited from earlier work.
Assay [1] concerns tissue transglutaminase-2, TGF-1, and vascular endothelial growth factor. Details: method as in PMID 20590611. The settings on record: sham OVX rats; cited from earlier work.
The target in the next assay is Tyrosinase (Agaricus bisporus, UniProt C7FF04). Nature of the assay: In vitro assay of tyrosinase activity (DOPAchrome). It is filed as biochemical. How it is done:
The tyrosinase inhibitory activity was measured from the following equation: inhibitory activity (%) = (1 − A/B) × 100, (9) where A and B are the absorbance of the mixture in presence or absence of test flavonoid, respectively. Every experiment was done in triplicate.

Assay [2] relates to incisional and excisional wounds. The settings on record: topical application; diabetic and non-diabetic rats; cited from earlier work.

Chain of Xanthine oxidase (P47989 whole entry, species assumed): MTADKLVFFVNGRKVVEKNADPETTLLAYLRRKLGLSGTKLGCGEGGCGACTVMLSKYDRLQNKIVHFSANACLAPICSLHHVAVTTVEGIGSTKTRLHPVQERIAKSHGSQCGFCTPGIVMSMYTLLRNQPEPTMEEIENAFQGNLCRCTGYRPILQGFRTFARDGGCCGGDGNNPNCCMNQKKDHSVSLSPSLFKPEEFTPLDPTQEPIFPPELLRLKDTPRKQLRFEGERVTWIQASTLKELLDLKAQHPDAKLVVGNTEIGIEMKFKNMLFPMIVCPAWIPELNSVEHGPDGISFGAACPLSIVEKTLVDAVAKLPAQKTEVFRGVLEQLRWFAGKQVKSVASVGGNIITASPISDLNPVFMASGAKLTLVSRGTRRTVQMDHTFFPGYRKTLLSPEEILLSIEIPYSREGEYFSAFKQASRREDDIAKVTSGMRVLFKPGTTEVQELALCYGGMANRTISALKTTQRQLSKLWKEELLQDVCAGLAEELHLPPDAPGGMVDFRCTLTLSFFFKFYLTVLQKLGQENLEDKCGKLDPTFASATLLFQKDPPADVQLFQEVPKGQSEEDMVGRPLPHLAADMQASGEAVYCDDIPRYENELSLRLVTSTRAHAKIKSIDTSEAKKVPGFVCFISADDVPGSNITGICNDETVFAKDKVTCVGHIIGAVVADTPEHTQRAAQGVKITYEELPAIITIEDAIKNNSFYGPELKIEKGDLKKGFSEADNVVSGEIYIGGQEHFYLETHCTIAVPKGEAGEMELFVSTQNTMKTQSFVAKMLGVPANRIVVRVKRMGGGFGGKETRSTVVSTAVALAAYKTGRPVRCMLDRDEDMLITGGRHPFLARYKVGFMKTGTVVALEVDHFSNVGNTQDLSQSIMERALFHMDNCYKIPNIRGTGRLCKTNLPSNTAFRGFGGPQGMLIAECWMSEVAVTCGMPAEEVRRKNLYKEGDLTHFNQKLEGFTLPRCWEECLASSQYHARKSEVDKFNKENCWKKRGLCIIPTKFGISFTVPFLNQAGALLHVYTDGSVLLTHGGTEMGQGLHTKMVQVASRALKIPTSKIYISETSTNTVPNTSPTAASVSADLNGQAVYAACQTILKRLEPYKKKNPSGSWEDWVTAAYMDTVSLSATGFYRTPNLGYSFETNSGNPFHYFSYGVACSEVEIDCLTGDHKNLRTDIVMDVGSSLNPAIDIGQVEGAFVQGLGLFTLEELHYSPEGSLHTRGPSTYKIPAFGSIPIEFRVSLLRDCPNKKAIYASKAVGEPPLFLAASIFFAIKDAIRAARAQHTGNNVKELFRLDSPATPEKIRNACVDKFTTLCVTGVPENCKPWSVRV
Chain of Tyrosinase (C7FF04 1-392): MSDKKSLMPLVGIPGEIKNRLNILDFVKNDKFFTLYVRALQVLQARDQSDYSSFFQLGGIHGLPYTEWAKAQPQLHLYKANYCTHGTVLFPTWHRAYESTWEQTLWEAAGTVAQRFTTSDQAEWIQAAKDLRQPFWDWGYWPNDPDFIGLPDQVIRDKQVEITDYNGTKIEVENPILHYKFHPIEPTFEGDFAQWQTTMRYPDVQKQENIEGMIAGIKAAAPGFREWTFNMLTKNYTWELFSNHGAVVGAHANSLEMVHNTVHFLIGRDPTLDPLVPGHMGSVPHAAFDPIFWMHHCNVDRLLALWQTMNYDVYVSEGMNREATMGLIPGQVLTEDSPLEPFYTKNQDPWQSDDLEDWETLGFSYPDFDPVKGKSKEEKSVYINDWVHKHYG

Consider `COc1ccc([C@@H]2CC(=O)c3c(O)cc(O[C@@H]4O[C@H](CO[C@@H]5O[C@@H](C)[C@H](O)[C@@H](O)[C@H]5O)[C@@H](O)[C@H](O)[C@H]4O)cc3O2)cc1O` [Hesperidin], for which the “healing of injured skin” value with injured skin was “sufficient healing benefits on injured skin”. Take `O=c1c(-c2ccc(O)cc2)c(O)oc2cc(O)cc(O)c12` [Compound 4, 2-hydroxygenistein]: the wound healing result in the assay with wound healing is given as “promote wound healing”. With `COc1ccc([C@@H]2CC(=O)c3c(O)cc(O)cc3O2)cc1O` [Compound 5, hesperetin], on Xanthine oxidase, the “activity against xanthine oxidase (in words)” value was “weak or inactivity” and the IC50 was greater than 100 µM. `O=c1c(-c2ccc(O)cc2)coc2cc(O)cc(O)c12` [Genistein]: the wound healing entry in the assay on cutaneous wound healing is reported as “accelerated wound healing”. The “effect on tissue transglutaminase-2, TGF-1 and vascular endothelial growth factor” value in assay [1] is “reduced tissue transglutaminase-2, TGF-1, and vascular endothelial growth factor”. In the case of `O=c1c(O)c(-c2ccc(O[C@@H]3O[C@H](CO)[C@@H](O)[C@H](O)[C@H]3O)cc2)oc2cc(O)cc(O)c12` [Compound 2, kaempferol-4′-O-β-D-glucopyranoside], at Xanthine oxidase, the “activity against xanthine oxidase (in words)” value is given as “weak or inactivity” and the IC50 was determined as 73.7 ± 2.33 µM. Further, at Tyrosinase, the “activity against tyrosinase (in words)” value is “inactive or weakly active”.

Regarding `O=c1c(O)c(-c2ccc(O)cc2)oc2cc(O[C@@H]3O[C@H](CO)[C@@H](O)[C@H](O)[C@H]3O)cc(O)c12` [Compound 3, kaempferol-7-O-β-D-glucopyranoside], on Xanthine oxidase, the IC50 was 6.39 ± 0.36 µM. For the same compound, on Tyrosinase, the “activity against tyrosinase (in words)” value is “inactive or weakly active”. On to `O=c1c(O)c(-c2ccc(O)cc2)oc2cc(O)cc(O)c12` [Compound 1, kaempferol], for which, in assay [2], the wound healing effect entry was “healing effects”. Consider `N[C@@H](Cn1ccc(=O)c(O)c1)C(=O)O` [L-mimosine, reference compound], for which, at Xanthine oxidase, half-maximal inhibition (IC50) required 3.63 ± 0.18 µM.
